Here are results for three molecules from PMC11528066, “Noninvasive Monitoring of Programmed Death-Ligand 2 Expression with Positron Emission Tomography using ^68Ga-labeled Peptide Antagonist in Preclinical and Exploratory Human Studies” (Research, 2024).

Peptide text beside a SMILES is read from it. * marks the point of attachment. NOTA = O=C(O)CN1CCN(CC(=O)O)CCN(CC(=O)*)CC1; AEEEA = NCCOCCOCCOCC(=O)O

One data set has as its system patients with NSCLC. Kind of data set: Clinical response to anti-PD-1 therapy in NSCLC patients. It counts as in vivo, human. An excerpt: We evaluated the clinical relevance between the expression of PD-L2 in tumor tissues and anti-PD-1 immunotherapy (pembrolizumab) in 49 patients with NSCLC, as assessed by PD-L2 IHC score data from these patients. The median age was 60 years (range, 41 to 86 y), male (81.6%). About 57.1% of the patients had distant metastasis (M1 stage), and 42.9% of the patients had received ≥2 other treatment before anti-PD-1 therapy (Table). […] patients were classified as PD-L1-positive expression, […] as PD-L2-positive expression, 21 (42.9%) as PD-L1 negative, and 27 (55.1%) as PD-L2 negative (Fig. 1A). […] (Fig. 1A). […] (Fig. 1A). In the 49 patients, PD-L2-positive was identified as a statistically significant predictor of better PFS (P < 0.05) (Fig. 1B), but it was not a statistically significant predictor of relapse-free survival (Fig. 1C).

The nature of data set [1]: [^18F]F-FDG PET/CT imaging in cancer patients. The data set is classed as in vivo, human. The method, then:
The program content was explained to all healthy volunteers and cancer patients, and written informed consent was obtained. Whole-body dynamic imaging was conducted for 60 min using a PET/CT 690 Elite scanner (GE Discovery) immediately after intravenous injection of [^68Ga]Ga-HN11-1 (3.1 to 4.9 MBq/kg). A static body scan was performed 15 to 45 min after injection. All cancer patients underwent [^18F]F-FDG and [^68Ga]Ga-HN11-1 PET/CT imaging within 5 d. Two nuclear medicine physicians reconstructed and reviewed the images on GE aw 4.6 workstations and reached a consensus. They delineated the ROIs and measured the values of maximum standard uptake and average standard uptake (SUVmax and SUVmean). The biological distribution of [^68Ga]Ga-HN11-1 in healthy volunteers was determined by SUVmax and SUVmean. The OLINDA/EXM software (version 1.0, Hermes Medical Solutions AB) was used to estimate the human radiation dose based on the SUVmean of each organ.

For data set [2] the following is noted: Adult, PET/CT; cited from earlier work. An excerpt: The kidney received the highest doses (9.83 × 10^−2 ± 2.10 × 10^−2 mSv/MBq).
A short description of data set [3]: In vitro stability in serum (radio-HPLC). The data set is classed as in vitro ADME. Particulars: room temperature, over 4 h (0.5, 1, 2, 4 h), 3.74 MBq, read-out: in vitro stability in serum (radiochemical purity). The method, then: (§1) The in vitro stability of [^68Ga]Ga-HN11-1 and [^68Ga]Ga-HN11-2 (3.74 MBq) in saline and serum was tested by radio-HPLC analysis of its radiochemical purity after incubation at room temperature for 0.5 , 1 , 2 and 4 h.

A short description of data set [4]: In vitro stability in saline (radio-HPLC). The data set is classed as physicochemical. Particulars: room temperature, over 4 h (0.5, 1, 2, 4 h), 3.74 MBq. How it is done: as §1
In data set [5] the test system is A549-PD-L2 xenograft models. Kind of data set: Static PET/CT imaging with blocking. Particulars: 60 min, pretreatment i.v. with excess HN11-1 / HN11-2 (10 mg/kg), n = 3. The data set is classed as in vivo, BALB/C nude mice. The method, then:
(§2) The static PET/CT imaging in A549 and A549-PD-L2 xenograft models after injection of 5.55 to 7.4 MBq (150 to 200 μCi) of [^68Ga]Ga-HN11-1 or [^68Ga]Ga-HN11-2 were acquired at 60 min. In the [^68Ga]Ga-HN11-1 + block or [^68Ga]Ga-HN11-2 + block groups, the xenograft models underwent pretreatment via intravenous injection of HN11-1 or HN-2 (10 mg/kg) before PET/CT imaging. Then, ROIs were delineated for each group. After imaging, tumor tissues from both the A549 and A459-PD-L2 xenograft tumors were extracted, and the PD-L2 expression was tested by IHC. For the pharmacokinetics study, healthy BALB/C mouse received an intravenous injection of 5.55 MBq (150 μCi) of [^68Ga]Ga-HN11-1 and [^68Ga]Ga-HN11-2. Measure the activity of blood samples (%ID/g, mean ± SD) at the corresponding time points, and the time-activity curve was plotted. Subsequently, pharmacokinetic parameters were tested using the noncompartmental model in Phoenix WinNonlin 8.1 software (Certara, USA).

The nature of data set [6]: Partition coefficient (log P), 1-octanol/PBS. The data set is classed as physicochemical. Particulars: shake-flask 3 mL 1-octanol / 3 mL PBS pH 7.4, vortex 10 min, centrifugation 10,000 rpm 10 min, γ-counter, mean ± SD, n = 5. The method, then: The partition coefficients were assessed using the method described previously. [^68Ga]Ga-HN11-1 and [^68Ga]Ga-HN11-2 was respectively introduced into a mixture comprising 3 mL of 1-octanol and 3 mL of phosphate-buffered saline (PBS) with a pH of 7.4. Following vortexing for 10 minutes and subsequent centrifugation at 10,000 rpm for 10 minutes, samples were taken from both layers and counted using a γ-counter. The log P was determined using the formula: log P = log([M]oct/[M]aq). All measurements were conducted using 5 independent samples and are presented as mean ± standard deviation (SD).

The next data set has as its system A549-PD-L2 cell lines. Kind of data set: Cell uptake assay. The settings on record: A549-PD-L2 cells, n = 5; for cell uptake rate: mean ± SD. The data set is classed as cell-based. The method, then: Cell uptake assays were conducted to measure the uptake of [^68Ga]Ga-HN11-1 and [^68Ga]Ga-HN11-2 in A549 and A459-PD-L2 cell lines following incubation periods of 15, 30, 60, and 90 min. Blocking studies were performed by coincubating cells with an excess of precursor (HN11-1 / HN11-2), and then the cell uptakes of [^68Ga]Ga-HN11-1 and [^68Ga]Ga-HN11-2 were performed in A459-PD-L2 cell lines after 60 min of incubation. The experiment details are provided in the SI.
All tumor cells (1 × 10^6 per well) were seeded in two 24 - well plates, incubated for 24 h and then added with […] of [^68Ga]Ga-HN11-1 or [^68Ga]Ga-HN11-2 per well. After 15, 30, 60 and 90 min of uptake, the cells were separated from the medium, washed with 500 μL of cold PBS for three times and dissolved with 1 M NaOH. At different time points, these cells were collected and counted by using a γ-counter (WIZARD 2480, Pekin Elmer). For in vitro blocking experiments, cells were co-incubated with 10 μg of cold HN11-1 or HN11-2 precursor. After incubation, the cells were washed, collected and measured with a γ-counter, either. The IC50 values of [^68Ga]Ga-HN11-1 or [^68Ga]Ga-HN11-2 were determined using GraphPad Prism 8.0.2 software, respectively.

For data set [7], the system named is A549-PD-L2 tumor xenograft models. Kind of data set: Dynamic micro-PET imaging in A549-PD-L2 xenografts. The data set is classed as in vivo, BALB/C nude mice. Particulars: n = 3. The method, then:
Micro-PET imaging was conducted using an Inveon PET scanner (Siemens, Germany). Dynamic PET examine were acquired over the first 60 min following the simultaneous injection of 7.4 to 9.25 MBq (200 to 250 μCi) of [^68Ga]Ga-HN11-1 and [^68Ga]Ga-HN11-2. After reconstructing the images and delineating the regions of interest (ROIs), time-radioactivity curves were plotted to obtain the Tumor/Muscle (T/M) ratios. %ID/g represents the percentage of the injected dose of the radiotracer that accumulates in a specific tissue per gram of tissue weight. For the biodistribution study, the xenograft models received an intravenous injection of 3.7 to 5.5 MBq (100 to 150 μCi) of [^68Ga]Ga-HN11-1. After the designated period (10, 30, 60, and 90 min), the mice were euthanized, and important tissues and organs were dissected and collected. The samples were counted using the γ-counter for determining the %ID/g, presented as mean ± standard deviation (SD).
A549 cell lines were provided by the China Center for Type Culture Collection (CCTCC) and cultured in RPMI-1640 medium supplemented with 10 % fetal bovine serum and 100 U/mL penicillin-streptomycin. The lentivirus system was implemented to introduce PD-L2 (PDCD1LG2) over-expressed cDNA into the A549 cells. The viral vectors were produced in 293T cells and co-transfected with the psAX2, pMD2G and PD-L2 plasmids. A549 cells transduced with the vectors were selectively grown in 1.6 μg/mL puromycin. Transfection efficiency was identified by WB and real-time quantitative PCR. All the cells were cultured in an incubator at 37° C with 5 % CO2 atmosphere. A549 and A549-PD-L2 cells (5 × 10^6, 200 μL)were subcutaneously implanted into the right shoulder of BALB/C nude mice (male, 4-6 weeks), respectively. When the tumors reached to 5 - 8 mm in diameter, the mice were subjected to in vivo and ex vivo studies. All the mice were purchased from the Laboratory Animal Center of Central South University.

The nature of data set [8]: Pharmacokinetics in blood. The data set is classed as in vivo. Particulars: healthy BALB/C mouse, i.v. 5.55 MBq, noncompartmental model, Phoenix WinNonlin 8.1. The method, then: as §2

pembrolizumab: anti-PD-1 immunotherapy: the response rate turned out to be 78.6% in the data set on patients with NSCLC (PD-L1-positive alone, 95% CI 63.4 to 93.8); 77.3% in the data set with patients with NSCLC (PD-L2-positive alone, 95% CI 59.8 to 94.8); 60.0% in the data set with patients with NSCLC (both PD-L1 and PD-L2 negative group, 95% CI 29.6 to 90.4). Further, the objective response rate in the data set with patients with NSCLC (PD-L1-positive but PD-L2-negative, 95% CI 56.3 to 96.6) was 76.5%; in the data set on patients with NSCLC (PD-L1-positive while PD-L2 unknown, 95% CI 63.4 to 93.8), 78.6%; in the data set on patients with NSCLC (both PD-L1- and PD-L2-positive, 95% CI 59.0 to 100.0), 81.8%.

As to `OC[C@H]1O[C@@H](O)[C@H]([18F])[C@@H](O)[C@@H]1O` [[^18F]F-FDG], the “FDG SUVmax” value in data set [1] (patient 1, NSCLC, lung) turned out to be 15.5; in data set [1] (patient 2, NSCLC, lung) it was 25.9; in data set [1] (patient 3, rHNSCC, buccal), 13.7; in data set [1] (patient 4, rHNSCC, buccal) it was 4.0; in [1] (patient 5, mHNSCC, tongue) it was 4.0; in data set [1] (patient 6, mHNSCC, laryngeal), 3.7. Besides, the effective dose in data set [2] was 1.9 × 10^−2 mSv/MBq.

For `CC[C@H](C)[C@H](NC(=O)[C@H](CCCNC(=N)N)NC(=O)[C@H](C)NC(=O)[C@H](CCCCN)NC(=O)[C@@H](NC(=O)[C@H](CCCNC(=N)N)NC(=O)[C@H](CCCNC(=N)N)NC(=O)[C@@H](NC(=O)[C@H](Cc1c[nH]cn1)NC(=O)COCCOCCOCCNC(=O)CN1CCN(CC(=O)O)CCN(CC(=O)O)CC1)C(C)C)[C@@H](C)O)C(=O)N[C@@H](CCCNC(=N)N)C(=O)N[C@@H](CC(N)=O)C(=O)O` [[^68Ga]Ga-HN11-2, metal not drawn] ({NOTA-AEEEA}-HVRRTKARIRN-OH), the remaining at 4 h in data set [3] was > 95%. In addition, the “in vitro stability in saline (radiochemical purity)” value in data set [4] is reported as > 95%. Also, in data set [5], the “tumor uptake after blocking” value came to 0.82 ± 0.04 %ID/g. The logD in data set [6] is -0.27 ± 0.0018. For the same molecule, the cell uptake rate in the data set with A549-PD-L2 cell lines (30 min incubation, γ-counter) is listed as 1.55 ± 0.08%; with A549-PD-L2 cell lines (60 min incubation) it was 2.47 ± 0.13%. The “cell uptake, block group” value in the data set on A549-PD-L2 cell lines (60 min, with excess (10 μg) of cold HN11-1 / HN11-2 precursor) is reported as 0.61 ± 0.03%. Also, the tumor uptake in data set [7] (10 min after injection) stood at 1.71 ± 0.14 %ID/g; in data set [7] (20 min after injection) it was 2.17 ± 0.12 %ID/g; in [7] (30 min after injection), 2.29 ± 0.17 %ID/g; in [7] (40 min after injection), 2.10 ± 0.03 %ID/g; in data set [7] (50 min after injection), 1.97 ± 0.07 %ID/g; in [7] (60 min after injection), 1.82 ± 0.06 %ID/g. For the same molecule, the half-life in blood in data set [8] was determined as 22.66 min.

In general, logD refers to the decadic logarithm of the distribution of all forms, ionised or not, between an organic phase and buffer at a given pH. The low end stands for lower lipophilicity, the high end for higher lipophilicity.
